Target: T1, Protoporphyrinogen IX oxidase (Zea mays, UniProt Q9FYV8)
T1 sequence (Q9FYV8 whole entry): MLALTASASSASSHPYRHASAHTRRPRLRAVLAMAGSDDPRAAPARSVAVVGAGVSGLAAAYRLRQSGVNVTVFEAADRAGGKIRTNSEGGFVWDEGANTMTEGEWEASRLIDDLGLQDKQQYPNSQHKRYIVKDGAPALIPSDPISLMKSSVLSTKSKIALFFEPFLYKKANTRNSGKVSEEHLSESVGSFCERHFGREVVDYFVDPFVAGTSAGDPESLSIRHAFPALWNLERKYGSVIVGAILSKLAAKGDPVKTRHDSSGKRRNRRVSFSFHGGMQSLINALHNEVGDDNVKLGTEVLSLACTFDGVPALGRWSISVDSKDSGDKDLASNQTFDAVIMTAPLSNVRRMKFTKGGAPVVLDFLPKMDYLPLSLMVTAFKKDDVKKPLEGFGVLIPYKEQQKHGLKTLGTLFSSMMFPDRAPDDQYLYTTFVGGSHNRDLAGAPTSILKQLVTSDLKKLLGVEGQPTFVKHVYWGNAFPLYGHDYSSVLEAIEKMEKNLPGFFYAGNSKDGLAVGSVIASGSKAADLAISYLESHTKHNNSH
Assay: Inhibition of Zea mays (maize) protoporphyrinogen IX oxidase
Details: read-out: pI50 (converted)

SMILES	IC50 [nM]
CCn1c(=S)s/c(=N\c2ccc(Br)cc2)n1CC	4270
Cn1c(=O)s/c(=N\c2ccc(Br)cc2)n1C	3720
S=c1n(-c2ccc(Br)cc2)c(=S)n2n1CCC2	34.7
O=c1[nH][nH]c(=S)n1-c1ccc(Br)cc1	72400
Cn1c(=S)s/c(=N\c2ccc(Br)cc2)n1C	3090
CCCn1c(=O)n(-c2ccc(Br)cc2)c(=S)n1CCC	24500
O=C1C2=C(CCCC2)C(=O)N1c1ccc(Cl)cc1 [CHLOROPHTHALIUM]	50.1
S=c1n(-c2ccc(Br)cc2)c(=S)n2n1CCCCC2	129
S=c1n(-c2ccc(Br)cc2)c(=S)n2n1CCCC2	10
CCn1c(=S)n(-c2ccc(Br)cc2)c(=S)n1CC	1380
CCn1c(=O)s/c(=N\c2ccc(Br)cc2)n1CC	8710

Now from value to compound:

IC50 [nM]	SMILES
110	Cn1c(=S)n(-c2ccc(Br)cc2)c(=S)n1C
282	Cn1c(=O)n(-c2ccc(Br)cc2)c(=S)n1C
832	CCn1c(=O)n(-c2ccc(Br)cc2)c(=S)n1CC
12900	Cn1c(=O)n(-c2ccc(Br)cc2)c(=O)n1C
36300	CCn1c(=O)n(-c2ccc(Br)cc2)c(=O)n1CC
